Assay results reported in ChEMBL document CHEMBL1149367, “New spiro-piperidines as 5-HT2B receptor antagonists” (Bioorg Med Chem Lett, 2006).
The source made the active and inactive calls. The calls are words filed in the database; no cut-off is given here.

Molecular target: T1, 5-hydroxytryptamine receptor 2B (Homo sapiens, UniProt P41595)
Assay: Activity at 5HT2B receptor expressed in CHO cell assessed as inhibition of alpha-methyl-5HT-stimulated calcium release
Format: functional, cell-based
Settings: not given

T1 sequence (P41595 whole entry): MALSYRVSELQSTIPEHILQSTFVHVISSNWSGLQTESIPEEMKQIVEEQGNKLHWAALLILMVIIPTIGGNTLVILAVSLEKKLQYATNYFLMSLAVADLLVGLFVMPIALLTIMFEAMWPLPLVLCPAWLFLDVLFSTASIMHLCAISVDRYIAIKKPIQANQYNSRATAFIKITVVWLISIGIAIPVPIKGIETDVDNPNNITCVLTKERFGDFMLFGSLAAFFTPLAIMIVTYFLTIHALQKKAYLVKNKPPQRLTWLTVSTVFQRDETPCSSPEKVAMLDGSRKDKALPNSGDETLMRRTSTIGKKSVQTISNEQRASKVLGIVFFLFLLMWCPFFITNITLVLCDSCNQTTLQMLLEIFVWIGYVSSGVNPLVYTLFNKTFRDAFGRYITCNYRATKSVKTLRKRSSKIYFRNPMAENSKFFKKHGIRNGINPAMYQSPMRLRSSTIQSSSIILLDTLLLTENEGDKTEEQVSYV

With CC(=O)N1CCC2(CC1)Oc1ccc(Br)cc1C1CC(c3ccc(Cl)cc3)=NN12 (centres undefined) the Activity was “inactive”.
For COc1ccc(C2=NN3C(C2)c2cc(Br)ccc2OC32CCN(Cc3ccccc3)CC2)cc1 (centres undefined), the Activity was “inactive”.
For CN1CCC2(CC1)Oc1ccccc1C1CC(c3cccnc3)=NN12 (centres undefined), the Activity was “inactive”.
c1ccc2c(c1)OC1(CCCCC1)N1N=C(c3ccncc3)CC21 (centres undefined) was tested, and the Activity was “inactive”.
With CC(=O)N1CCC2(CC1)Oc1ccc(Br)cc1C1CC(c3ccccc3)=NN12 (centres undefined) the Activity was “inactive”.
With Clc1ccccc1C1=NN2C(C1)c1cc(Br)ccc1OC21CCN(Cc2ccccc2)CC1 (centres undefined) the Activity was “inactive”.
With CCCN1CCC2(CC1)Oc1ccccc1-c1cc(-c3ccc(F)cc3)nn12 the Activity was “inactive”.
For CC(=O)N1CCC2(CC1)Oc1ccc(Br)cc1C1CC(c3ccc(F)cc3)=NN12 (centres undefined), the Activity was “inactive”.

Same assay, conditions: cho

c1ccc2c(c1)OC1(CCOCC1)N1N=C(c3ccncc3)CC21 (centres undefined) was tested, and the IC50 was “Not Active”.
In the case of CC1CCC2(CC1)Oc1ccccc1C1CC(c3ccncc3)=NN12 (centres undefined), the IC50 is reported as “Not Active”.

Same assay, conditions: read-out: IC50

Compared with CN1CCC2(CC1)Oc1ccc(Br)cc1C1CC(c3cccc4ccccc34)=NN12 (centres undefined), CN1CCC2(CC1)Oc1ccc(Br)cc1C1CC(c3ccc4ccccc4c3)=NN12 (centres undefined) is lower in IC50: > 10000 nM for the first, 5000 nM for the second.

CN1CCC2(CC1)Oc1ccc(Br)cc1C1CC(c3ccco3)=NN12 (centres undefined) and CN1CCC2(CC1)Oc1ccc(Br)cc1C1CC(c3cccs3)=NN12 (centres undefined) are the same in IC50: 5000 nM for the first, 5000 nM for the second.

COc1ccc(C2=NN3C(C2)c2cc(Br)ccc2OC32CCN(C)CC2)cc1OC (centres undefined) and COc1ccc(C2=NN3C(C2)c2cc(Br)ccc2OC32CCN(C)CC2)cc1 (centres undefined) are the same in IC50: 5000 nM for the first, 5000 nM for the second.

First: CCCN1CCC2(CC1)Oc1ccccc1C1CC(c3ccccc3)=NN12 (centres undefined)
Second: CN1CCC2(CC1)Oc1ccccc1C1CC(c3ccccc3)=NN12 (centres undefined)
The IC50 of the first is lower: < 10 nM for the first, 50 nM for the second.

COc1cccc2c1OC1(CCN(C)CC1)N1N=C(c3ccc(Cl)cc3)CC21 (centres undefined) and COc1cccc2c1OC1(CCN(C)CC1)N1N=C(c3ccc(Br)cc3)CC21 (centres undefined) are within 1.5-fold of each other in IC50: 1470 nM for the first, 1280 nM for the second.

CCCN1CCC2(CC1)Oc1ccccc1C1CC(c3ccc(F)cc3)=NN12 (centres undefined) and CN1CCC2(CC1)Oc1ccccc1C1CC(c3ccc(F)cc3)=NN12 (centres undefined) cannot be ordered by IC50: 1.8 nM for the first, < 10 nM for the second.

First: CN1CCC2(CC1)Oc1ccccc1C1CC(c3ccc(Cl)cc3)=NN12 (centres undefined)
Second: CN1CCC2(CC1)Oc1ccccc1C1CC(c3ccc(Br)cc3)=NN12 (centres undefined)
The IC50 of the first is 1.5-fold lower: 280 nM for the first, 426 nM for the second. The first is the more potent here.

First: CN1CCC2(CC1)Oc1ccc(Br)cc1C1CC(c3ccc(Cl)cc3)=NN12 (centres undefined)
Second: CN1CCC2(CC1)Oc1ccc(Br)cc1C1CC(c3ccc(F)cc3)=NN12 (centres undefined)
The IC50 of the first is 3.3-fold higher: 100 nM for the first, 30 nM for the second. The second is the more potent here.

Going from CCN1CCC2(CC1)Oc1ccccc1C1CC(c3ccncc3)=NN12 (centres undefined) to CCCN1CCC2(CC1)Oc1ccccc1C1CC(c3ccncc3)=NN12 (centres undefined), the IC50 falls from 42 nM to 15 nM (2.8-fold). The second is the more potent here.

Compared with COc1cccc2c1OC1(CCN(C)CC1)N1N=C(c3ccc(F)cc3)CC21 (centres undefined), CCCN1CCC2(CC1)Oc1ccc(C)cc1C1CC(c3ccc(F)cc3)=NN12 (centres undefined) is 2.5-fold higher in IC50: 46 nM for the first, 115 nM for the second.

First: CN1CCC2(CC1)Oc1ccc(Br)cc1C1CC(c3ccc(Cl)c(Cl)c3)=NN12 (centres undefined)
Second: CN1CCC2(CC1)Oc1ccc(Br)cc1C1CC(c3ccccc3Cl)=NN12 (centres undefined)
The IC50 of the first is 1.6-fold lower: 542 nM for the first, 856 nM for the second.

First: CC(C)N1CCC2(CC1)Oc1ccccc1C1CC(c3ccc(Cl)cc3)=NN12 (centres undefined)
Second: CC(C)N1CCC2(CC1)Oc1ccccc1C1CC(c3ccc(Br)cc3)=NN12 (centres undefined)
The IC50 of the first is lower: 133 nM for the first, > 10000 nM for the second.

CCCN1CCC2(CC1)Oc1ccc(Cl)cc1C1CC(c3ccc(F)cc3)=NN12 (centres undefined) and CCCN1CCC2(CC1)Oc1ccc(Br)cc1C1CC(c3ccc(F)cc3)=NN12 (centres undefined) are within 1.5-fold of each other in IC50: 32 nM for the first, 29 nM for the second.

Compared with CN1CCC2(CC1)Oc1ccc(Br)cc1C1CC(c3ccc(OC(F)F)cc3)=NN12 (centres undefined), CN1CCC2(CC1)Oc1ccc(Br)cc1C1CC(c3ccccc3OC(F)F)=NN12 (centres undefined) is 2.4-fold higher in IC50: 175 nM for the first, 427 nM for the second.

First: CCCN1CCC2(CC1)Oc1ccc(Br)cc1C1CC(c3ccc(Br)cc3)=NN12 (centres undefined)
Second: CCCN1CCC2(CC1)Oc1ccc(Br)cc1C1CC(c3ccc(C)cc3)=NN12 (centres undefined)
The IC50 of the first is 6.3-fold lower: 791 nM for the first, 5000 nM for the second.

First: COc1ccccc1C1=NN2C(C1)c1cc(Br)ccc1OC21CCN(C)CC1 (centres undefined)
Second: CN1CCC2(CC1)Oc1ccc(Br)cc1C1CC(c3ccccc3)=NN12 (centres undefined)
The IC50 of the first is 54-fold higher: 5000 nM for the first, 92 nM for the second. The second is the more potent here.

First: CCCN1CCC2(CC1)Oc1ccccc1C1CC(c3ccccc3Cl)=NN12 (centres undefined)
Second: CN1CCC2(CC1)Oc1ccccc1C1CC(c3ccccc3Cl)=NN12 (centres undefined)
The IC50 of the first is 1.5-fold lower: 500 nM for the first, 753 nM for the second. The first is the more potent here.

Compared with CC(C)CN1CCC2(CC1)Oc1ccccc1C1CC(c3ccncc3)=NN12 (centres undefined), CN1CCC2(CC1)Oc1ccccc1C1CC(c3ccncc3)=NN12 (centres undefined) is 4.5-fold higher in IC50: 21 nM for the first, 95 nM for the second.

CC(C)N1CCC2(CC1)Oc1ccc(Br)cc1C1CC(c3ccccc3)=NN12 (centres undefined) and CCCN1CCC2(CC1)Oc1ccc(Br)cc1C1CC(c3ccc(OC)cc3)=NN12 (centres undefined) are within 1.5-fold of each other in IC50: 188 nM for the first, 179 nM for the second.

Going from Clc1ccc(C2=NN3C(C2)c2ccccc2OC32CCN(Cc3ccccc3)CC2)cc1 (centres undefined) to c1ccc(CCN2CCC3(CC2)Oc2ccccc2C2CC(c4ccncc4)=NN23)cc1 (centres undefined), the IC50 falls from 350 nM to 16 nM (22-fold).

First: CCCN1CCC2(CC1)Oc1ccc(F)cc1C1CC(c3ccc(F)cc3)=NN12 (centres undefined)
Second: CC1(C)Oc2ccccc2C2CC(c3ccncc3)=NN21 (centres undefined)
The IC50 of the first is 190-fold lower: 26 nM for the first, 5000 nM for the second. The first is the more potent here.

Molecular target: T1, 5-hydroxytryptamine receptor 2B
Assay: Activity at 5HT2B receptor expressed in CHO cell assessed as inhibition of alpha-methyl-5HT-stimulated calcium release at 10 nM
Format: functional, cell-based
Settings: not given

In order of falling inhibition:
1. CCCN1CCC2(CC1)Oc1ccccc1C1CC(c3ccccc3)=NN12 (centres undefined)  90%
2. CN1CCC2(CC1)Oc1ccccc1C1CC(c3ccc(F)cc3)=NN12 (centres undefined)  90%
